Assays:
Parameters in all cases: species or system E. coli
[1] = test system: modified 16S RNA (5IU1406; 5-iodouridine at position U1406); experiment: ESI-FT-ICR MS ligand binding to 27-mer 16S RNA modified at U1406; conditions: Example 2: gentamicin 2 μM
Experimental: (§1) The following examples illustrate preferred embodiments of the present invention using mass spectrometry. Experiments were performed using a 7.0 Tesla Fourier transform ion cyclotron resonance (FT-ICR) mass spectrometer with an electrospray ionization source operating in the negative mode. A −3000 V difference was employed between the spray tip and the inlet capillary to generate the electrospray. Samples were introduced at a flow rate of 1.5 uL/min using a Harvard syringe pump and a 50 uL glass syringe. The desolvation of the electrospray droplets was aided by a flow of countercurrent gas at 1 L/min. Ions were accumulated for 1.0 sec in an intermediate hexapole ion storage region at 1.0×10^−5 mbar. Following transfer to the FT-ICR analysis cell, the image current was measured over a mass range of 500-4000 m/z. Typically, a total of 32 transients containing 512 kbytes were summed prior to Fourier transformation. The m/z values were calibrated on the signal from the [M-5H^+]^5− charge state of the free RNA at 1726.509.
An aqueous solution containing 100 mM ammonium acetate buffer (pH 7.0), 33% isopropyl alcohol, gentamicin (2 μM), 16S RNA (2.5 μM) and a modified 16S RNA (2.5 μM) was prepared. […] The peaks were integrated and ion abundances determined. Fractions of 16S+genta and 5IU1406+genta complexes were determined to be 66.8% and 28.1±1% for the free 16S RNA and 5IU1406 RNA, respectively.

[2] = test system: 16S RNA (27-mer RNA model of the prokaryotic A-site 16S RNA); experiment: ESI-FT-ICR MS ligand binding to unmodified 27-mer 16S RNA
Experimental: as §1
An aqueous solution containing 100 mM ammonium acetate buffer (pH 7.0), 33% isopropyl alcohol, gentamicin (2 μM, present in three forms), 16S RNA (2.5 μM) and a modified 16S RNA (2.5 μM) was prepared. Modified 27-mer 16S RNA contained a 5-iodouridine residue at position 13 in the UUCG tetraloop (See FIG. 1). The resulting mass spectra (see FIG. 3, upper spectrum) contained identifiable peaks corresponding to free 16S RNA (m/z 1726.5), free modified 16S RNA(5IUtetra; m/z 1750.7), 16S complexed with the three forms of gentamicin present in the sample (16S+genta; m/z 1816-1825), and 16S(5IUtetra) complexed with the three forms of gentamicin (5IUtetra+genta; m/z 1841-1849). The peaks were integrated and ion abundances determined. Fractions of 16S+genta and 5IUtetra+genta complexes were determined to be 70.4% and 68.2±1% for the free 16S RNA and 5IUtetraRNA, respectively.
An aqueous solution containing 100 mM ammonium acetate buffer (pH 7.0), 33% isopropyl alcohol, gentamicin (2 μM), 16S RNA (2.5 μM) and a modified 16S RNA (2.5 μM) was prepared. Modified 27-mer 16S RNA contained a 5-iodouridine residue at position U1406 at the position of a U-U mismatch base pair (E. coli numbering system). The resulting mass spectra (see FIG. 3, lower spectrum) contained identifiable peaks corresponding to free 16S RNA (m/z 1726.5), free modified 16S RNA(5IU1406; m/z 1750.7), 16S complexed with the three forms of gentamicin present in the sample (16S+genta; m/z 1816-1825), and 16S(5IU1406) complexed with the three forms of gentamicin (5IU1406+genta; m/z 1841-1849). The peaks were integrated and ion abundances determined. Fractions of 16S+genta and 5IU1406+genta complexes were determined to be 66.8% and 28.1±1% for the free 16S RNA and 5IU1406 RNA, respectively.
An aqueous solution containing 50 mM ammonium acetate buffer (pH 7.0), 33% isopropyl alcohol, ribostamycin (2.5 μM), 16S RNA (2.5 μM) and a modified 16S RNA (2.5 μM) was prepared. […] The resulting mass spectra (see FIG. 4) contained identifiable peaks corresponding to free 16S RNA (m/z 1726.5), free modified 16S RNA(5IU 1495; m/z 1821.4), 16S complexed with ribostamycin present in the sample (16S+ribost; m/z 1818.6), and 16S(5IU1495) complexed with ribostamycin (5IU1495+ribost; m/z 1912.3). The peaks were integrated and ion abundances determined. Fractions of 16S+ribost and 5IU1495+ribost complexes were determined to be 67.6% and 29.9±1% for the free 16S RNA and 5IU1495 RNA, respectively.
An aqueous solution containing 100 mM ammonium acetate buffer (pH 7.0), 33% isopropyl alcohol, gentamicin (1 μM), 16S RNA (5 μM) and a modified 16S RNA (5.5 μM) was prepared. Modified 27-mer 16S RNA contained a 3′-phosphorothioate residue at position G1491 at the position of a G-C base pair (E. coli numbering system) and a C12O6 PEG mass tag off the 5′-hydroxyl group. Mass spectra were obtained using the standard protocol described above. […]

[3] = test system: modified 16S RNA (5IUtetra; 5-iodouridine at position 13 in the UUCG tetraloop); experiment: ESI-FT-ICR MS ligand binding to 27-mer 16S RNA modified at the tetraloop
Experimental: as §1, with “The m/z values were calibrated on the signal from the [M-5H^+]^5− charge state of the free RNA at 1726.509.” left out
An aqueous solution containing 100 mM ammonium acetate buffer (pH 7.0), 33% isopropyl alcohol, gentamicin (2 μM, present in three forms), 16S RNA (2.5 μM) and a modified 16S RNA (2.5 μM) was prepared. […] The peaks were integrated and ion abundances determined. Fractions of 16S+genta and 5IUtetra+genta complexes were determined to be 70.4% and 68.2±1% for the free 16S RNA and 5IUtetraRNA, respectively.

[4] = test system: modified 16S RNA (5IU1495; 5-iodouridine at position U1495, PEG-6 chain at 5′-hydroxyl); experiment: ESI-FT-ICR MS ligand binding to 27-mer 16S RNA modified at U1495; conditions: Example 3: ribostamycin 2.5 μM
Experimental: as §1, with “The m/z values were calibrated on the signal from the [M-5H^+]^5− charge state of the free RNA at 1726.509.” left out
An aqueous solution containing 50 mM ammonium acetate buffer (pH 7.0), 33% isopropyl alcohol, ribostamycin (2.5 μM), 16S RNA (2.5 μM) and a modified 16S RNA (2.5 μM) was prepared. […] The peaks were integrated and ion abundances determined. Fractions of 16S+ribost and 5IU1495+ribost complexes were determined to be 67.6% and 29.9±1% for the free 16S RNA and 5IU1495 RNA, respectively.

[5] = Example 1: gentamicin 2 μM (three forms), 16S RNA 2.5 μM with 5IUtetra RNA 2.5 μM, 100 mM ammonium acetate pH 7.0, 33% isopropyl alcohol

| Compound | Amount of 5IU1406+genta as % of the amount of 16S+genta [1] | Fraction of 5IU1406+genta complex ([1]; 16S RNA 2.5 μM with 5IU1406 RNA 2.5 μM, 100 mM ammonium acetate pH 7.0, 33% isopropyl alcohol) | Fraction of 16S+genta complex [2, 5] | Fraction of 16S+genta complex ([2]; Example 2: gentamicin 2 μM, 16S RNA 2.5 μM with 5IU1406 RNA 2.5 μM, 100 mM ammonium acetate pH 7.0, 33% isopropyl alcohol) | Fraction of 16S+genta complex ([2]; Example 4: gentamicin 1 μM (lowest mass form integrated), 16S RNA 5 μM with 5′-PS-G1491 RNA 5.5 μM, 100 mM ammonium acetate pH 7.0, 33% isopropyl alcohol) | Fraction of 16S+genta complex ([2]; Example 6: gentamicin 1 μM (lowest mass form integrated), 16S RNA 5 μM with 5′-PS-A1492 RNA 5.5 μM, 100 mM ammonium acetate pH 7.0, 33% isopropyl alcohol) | Effect of 5-iodouridine residue in the tetraloop on the abundance of the gentamicin-RNA complex ([3]; Example 1: 5IUtetra versus 16S RNA) | Fraction of 5IUtetra+genta complex [3, 5] | Fraction of 16S+ribost complex ([2]; Example 3: ribostamycin 2.5 μM, 16S RNA 2.5 μM with 5IU1495 RNA 2.5 μM, 50 mM ammonium acetate pH 7.0, 33% isopropyl alcohol) | Fraction of 16S+ribost complex ([2]; Example 5: ribostamycin 1 μM, 16S RNA 5 μM with 5′-PS-G1491 RNA 5.5 uM, 100 mM ammonium acetate pH 7.0, 33% isopropyl alcohol) | Fraction of 16S+ribost complex ([2]; Example 7: ribostamycin 1 μM, 16S RNA 5 μM with 5′-PS-A1492 RNA 5.5 μM, 100 mM ammonium acetate pH 7.0, 33% isopropyl alcohol) | Amount of 5IU1495+ribost as % of the amount of 16S+ribost [4] | Fraction of 5IU1495+ribost complex ([4]; 16S RNA 2.5 μM with 5IU1495 RNA 2.5 μM, 50 mM ammonium acetate pH 7.0, 33% isopropyl alcohol) |
| --- | --- | --- | --- | --- | --- | --- | --- | --- | --- | --- | --- | --- | --- |
| gentamicin | 42% | 28.1±1% | 70.4% | 66.8% | 0.127% | 0.121% | no effect | 68.2±1% | – | – | – | – | – |
| NC[C@H]1O[C@H](O[C@H]2[C@H](O[C@@H]3O[C@H](CO)[C@@H](O)[C@H]3O)[C@@H](O)[C@H](N)C[C@@H]2N)[C@H](N)[C@@H](O)[C@@H]1O [ribostamycin] | – | – | – | – | – | – | – | – | 67.6% | 0.105% | 0.101% | 44% | 29.9±1% |
